Experimental data published in publication PMC10461829, “NlpC/P60 peptidoglycan hydrolases of Trichomonas vaginalis have complementary activities that empower the protozoan to control host-protective lactobacilli” (PLOS Pathogens, 2023).

Molecular target: T1, TvNlpC_B3 (Trichomonas vaginalis, UniProt A2FQ38)
T1 construct: gene TVAG_042760; N-terminal His6-3C tag cleaved; E. coli BL21(DE3), pET47b; model Asn23-Tyr137; catalytic Cys53/His99/His111; no SH3 domain; E64 adduct 14,046 Da
Test: X-ray crystal structure of complex; mass spectrometry of covalent adduct
Assay type: binding
Conditions: covalent at Cys53 via C2; at least 5:1 molar ratio, 1 h, room temperature; only a 131 Da fragment of E64 modelled, intact adduct seen by mass spectrometry

CC(C)C[C@H](NC(=O)[C@H]1O[C@@H]1C(=O)O)C(=O)NCCCCNC(=N)N [E64]
X-ray crystal structure of complex; mass spectrometry of covalent adduct: The structure of TvNlpC_B3 bound to the inhibitor E64 was determined by molecular replacement
